US4489091A, “Antilipemic and anti-inflammatory compositions containing sulfonate derivatives” (Taiho Pharmaceutical Company Limited, priority 1980, dated 1984)
Like-named read-outs stand apart in the source and are kept apart here.

Columns and labels:
triglycerides = experiment: Antilipemic effect: percent triglycerides inhibition in plasma of rats given an olive oil-cholesterol mixture; type: in vivo, male Wistar rats; conditions: for inhibition in vivo at 100 mg/kg: read-out: Anti-lipemic effect, TG (percent triglycerides inhibition); for inhibition in vivo at 200 mg/kg: oral 200 mg/kg (asterisked values), read-out: Anti-lipemic effect, TG (percent triglycerides inhibition), asterisked
In short: (§1)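 Male Wistar rats, seven weeks old, 200 to 220 g, 5 per group, dosed orally at 100 or 200 mg/kg in olive oil-cholesterol mixture (15% cholesterol) at 10 ml/kg. Plasma triglycerides measured at 2 hours, total cholesterol at 8 hours, by enzymatic kits; percent inhibition calculated relative to vehicle control and untreated normal groups.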

cholesterol = experiment: Antilipemic effect: percent total cholesterol inhibition in plasma of rats given an olive oil-cholesterol mixture; type: in vivo, male Wistar rats; conditions: for inhibition in vivo at 100 mg/kg: read-out: Anti-lipemic effect, CS (percent cholesterol inhibition); for Anti-lipemic effect, CS (percent cholesterol inhibition), asterisked: oral 200 mg/kg (asterisked values)
In short: as §1

Acute toxicity = conditions: rat, in vivo
Description: Six-week-old male Wistar rats weighing 180 to 200 g are used, 5 rats in each group. Each compound of the invention is suspended in a 30% aqueous solution of polyethylene glycol 6000 and orally given to the rat at the dosage shown in Table 2. The animals are checked for poisoning, body weight and survival to determine the LD50 value.

esterase = experiment: Esterase inhibiting activity; type: biochemical; conditions: rat liver microsome esterase, methyl butyrate substrate, pH 8.0, 37° C., 60 minutes; read-out: IC50 for esterases
Method: A 10 micromole quantity of methyl butyrate in a 50% ethanol solution is added as a substrate to a specified amount of buffer solution containing 0.1 mole of trishydrochloric acid (pH 8.0). To the mixture is further added a 50% ethanol solution of the compound of the invention, immediately followed by addition of an esterase solution prepared from a purified microsome fraction of the liver of a rat (adjusted to hydrolyze 9 micromoles of methyl butyrate at 37° C. in one hour) as an enzyme solution. The mixture is reacted at 37° C. for 60 minutes.
After the reaction, alkaline hydroxylamine is added to the mixture to form a hydroxamic acid derivative of methyl butyrate, and a ferric salt is added to the derivative. The resulting red color is colorimetrically determined (at a wavelength of 540 nm) to determine the amount of remaining methyl butyrate. The esterase inhibiting ratios of the present compound at least at three concentrations are plotted as ordinate, and the logarithms of the concentrations as abscissa to obtain a line, which gives the 50% inhibition concentration (IC50).

chymotripsin = chymotripsin (Bos taurus, UniProt P00766); experiment: Chymotripsin inhibiting activity; type: biochemical; conditions: 0.5 h; compound 1×10^-4 mole, ATEE substrate, pH 8.0, 37° C.; read-out: Percent chymotripsin inhibition
Method: Chymotripsin (0.1 unit) serving as an enzyme solution is added to a specified quantity of buffer solution containing 0.1 mole of trishydrochloric acid (pH 8.0). To the mixture is further added a 50% ethanol solution of the compound of the invention so that the resulting mixture contains the compound in a concentration of 1×10^-4 mole. The mixture is reacted at 37° C. for 20 minutes.
On completion of the reaction, 10 micromoles of N-acetyl-L-thyrosine ethyl ester (ATEE) serving as a substrate is added to the mixture, and the resulting mixture is reacted at 37° C. for 30 minutes.
After the completion of the reaction, the amount of remaining ATEE is determined by the same hydroxamic acid method as above. The percent chymotripsin inhibition is given by [formula] wherein A is the amount of hydrolyzed esters in the reaction system not containing the compound of the invention, and B is the amount of hydrolyzed esters in the reaction system containing the present compound.

[1] = oral 100 mg/kg, plasma 2 hours after dosing, Wistar rat
[2] = oral 100 mg/kg, plasma 8 hours after dosing, Wistar rat
[3] = oral, six-week-old male Wistar rats, suspended in 30% aqueous polyethylene glycol 6000, read-out: LD50
[4] = plasma 2 hours after dosing, Wistar rat
[5] = plasma 8 hours after dosing, Wistar rat

Row | Structure (SMILES) | inhibition in vivo at 100 mg/kg (triglycerides; [1]) | inhibition in vivo at 100 mg/kg (cholesterol; [2]) | LD50 (Acute toxicity; po) | IC50 (esterase) | inhibition at 100 µM (chymotripsin) | inhibition in vivo at 100 mg/kg (triglycerides; Rattus norvegicus, po, 2 h) | inhibition in vivo at 100 mg/kg (cholesterol; Rattus norvegicus, po, 8 h) | LD50 (Acute toxicity; [3]) | inhibition in vivo at 200 mg/kg (triglycerides; [4]) | Anti-lipemic effect, CS (percent cholesterol inhibition), asterisked (cholesterol; [5])
1 | CCCC(=O)COS(=O)(=O)c1ccc2ccccc2c1 [Compound 5] | 86% | 73% | > 2500 mg/kg | 3600 nM | 17% |  |  |  |  | 
2 | CCCCCC(=O)COS(=O)(=O)c1ccccc1 [Compound 8] | 87% | 60% | > 2000 mg/kg | 72 nM | 100% |  |  |  |  | 
3 | CCCCCCC(=O)COS(=O)(=O)c1ccccc1 [Compound 9] | 88% | 62% | > 3000 mg/kg | 68 nM | 96% |  |  |  |  | 
4 | CCCCCCCCCC(=O)COS(=O)(=O)c1ccccc1 [Compound 10] |  |  |  | 7.6 nM | 14% | 80% | 61% | > 3000 mg/kg |  | 
5 | C=CCCC(=O)COS(=O)(=O)c1ccccc1 [Compound 14] | 92% | 62% | > 2000 mg/kg | 520 nM | 25% |  |  |  |  | 
6 | CCCCCC(=O)COS(=O)(=O)c1ccc(C)cc1 [Compound 18] | 94% | 40% | > 3000 mg/kg | 1600 nM | 77% |  |  |  |  | 
7 | CCCCCCC(=O)COS(=O)(=O)c1ccc(C)cc1 [Compound 19] | 78% | 41% | > 3000 mg/kg | 3400 nM | 100% |  |  |  |  | 
8 | CCCCCCC(=O)COS(=O)(=O)c1ccccc1C [Compound 31] | 61% | 31% | > 2000 mg/kg | 17 nM | 100% |  |  |  |  | 
9 | CCCCC(CC)C(=O)COS(=O)(=O)c1ccccc1C (centres unmarked) [Compound 32] | 70% | 43% | > 3000 mg/kg | 350 nM | 0.4% |  |  |  |  | 
10 | CCCCCCCC(=O)COS(=O)(=O)c1ccc(OC)cc1 [Compound 37] | 62% | 62% | > 3000 mg/kg | 150 nM | 91% |  |  |  |  | 
11 | CCCCCCCCCC(=O)COS(=O)(=O)c1ccc(OC)cc1 [Compound 38] |  |  | > 4000 mg/kg | 100 nM | 45% |  |  |  | 67% | 
12 | CCCCCCCC(=O)COS(=O)(=O)c1ccc(OCC)cc1 [Compound 47] |  | 60% | > 4000 mg/kg | 590 nM | 67% |  |  |  | 82% | 
13 | CCCCC(CC)C(=O)COS(=O)(=O)c1ccc(OCC)cc1 (centres unmarked) [Compound 50] | 80% | 94% | > 4500 mg/kg | 21000 nM | 31% |  |  |  |  | 
14 | CCCCCCCC(=O)COS(=O)(=O)c1ccc(OCCCC)cc1 [Compound 56] |  |  | > 3000 mg/kg | 1000 nM | 50% |  |  |  | 64% | 42%
15 | CCCCCCCCCCCC(=O)COS(=O)(=O)c1ccc(O)cc1 [Compound 62] |  |  | > 3000 mg/kg | 29 nM | 93% |  |  |  | 72% | 
16 | CCCC(=O)COS(=O)(=O)c1c(C)cc(C)cc1C [Compound 73, 2-oxopentyl-2,4,6-trimethylbenzenesulfonate] | 92% | 90% |  | 1000 nM | 13% |  |  | > 3000 mg/kg |  | 
17 | CCCCCCCCC(=O)COS(=O)(=O)c1c(C)cc(C)cc1C [Compound 78] | 56% | 61% | > 4000 mg/kg | 0.63 nM | 72% |  |  |  |  | 

Row | Structure (SMILES) | inhibition in vivo at 100 mg/kg (triglycerides; [1]) | inhibition in vivo at 100 mg/kg (cholesterol; [2]) | LD50 (Acute toxicity; po) | IC50 (esterase) | inhibition at 100 µM (chymotripsin) | inhibition in vivo at 100 mg/kg (triglycerides; Rattus norvegicus, po, 2 h) | inhibition in vivo at 100 mg/kg (cholesterol; Rattus norvegicus, po, 8 h) | LD50 (Acute toxicity; [3]) | inhibition in vivo at 200 mg/kg (triglycerides; [4]) | Anti-lipemic effect, CS (percent cholesterol inhibition), asterisked (cholesterol; [5])
18 | CCCCCCCCCCC(=O)COS(=O)(=O)c1c(C)cc(C)cc1C [Compound 80] |  |  | > 4000 mg/kg | 0.032 nM | 55% |  |  |  | 63% | 
19 | C=CCCC(=O)COS(=O)(=O)c1c(C)cc(C)cc1C [Compound 86] | 79% | 66% | > 3000 mg/kg | 120 nM | 14% |  |  |  |  | 
20 | CCCCCC(=O)COS(=O)(=O)c1c(C)c(C)cc(C)c1C [Compound 90] |  |  | > 3000 mg/kg | 2.6 nM | 13% |  |  |  | 59% | 
21 | CCCCC(=O)COS(=O)(=O)c1c(C)cc(C)c(C)c1C [Compound 96] | 68% | 71% | > 3000 mg/kg | 0.16 nM | 12% |  |  |  |  | 
22 | CCCCCCCCC(=O)COS(=O)(=O)c1c(C)cc(C)c(C)c1C [Compound 98] |  |  | > 4000 mg/kg | 0.027 nM | 26% |  |  |  | 70% | 71%
23 | C=CCCCCCCCCC(=O)COS(=O)(=O)c1c(C)cc(C)c(C)c1C [Compound 101] |  |  | > 4000 mg/kg | 30 nM | 23% |  |  |  | 54% | 
24 | CCCC(=O)COS(=O)(=O)c1cc(C)ccc1C [Compound 111] | 73% | 51% | > 2000 mg/kg | 280 nM | 4% |  |  |  |  | 
25 | CCCC(=O)COS(=O)(=O)c1cc(C)c(C)cc1C [Compound 116] | 90% | 82% | > 2000 mg/kg | 1300 nM | 0% |  |  |  |  | 
26 | CCCCC(CCCC)C(=O)COS(=O)(=O)c1ccc(C)cc1 [Compound 129] | 66% | 45% | > 3000 mg/kg | 7000 nM | 30% |  |  |  |  | 
27 | CCCCCC(C)C(=O)COS(=O)(=O)c1ccc(C)cc1 (centres unmarked) [Compound 130] | 72% | 51% | > 3000 mg/kg | 4000 nM | 52% |  |  |  |  | 
28 | CCCC(CC)C(=O)COS(=O)(=O)c1ccc(OCC)cc1 (centres unmarked) [Compound 134] | 82% | 65% | > 4500 mg/kg | 560000 nM | 2% |  |  |  |  | 
29 | CCCC(CCC)C(=O)COS(=O)(=O)c1ccc(OCC)cc1 [Compound 135] | 91% | 92% | > 4500 mg/kg | 56000 nM | 10% |  |  |  |  | 
30 | CCOc1ccc(S(=O)(=O)OCC(=O)CC(CC)CC)cc1 [Compound 137] | 81% | 72% | > 4000 mg/kg | 10000 nM | 14% |  |  |  |  | 
31 | CCOc1ccc(S(=O)(=O)OCC(=O)CCC(C)C)cc1 [Compound 138] | 95% | 90% | > 2000 mg/kg | 4200 nM | 67% |  |  |  |  | 
32 | CCOc1ccc(S(=O)(=O)OCC(=O)CCC(C)CC)cc1 (centres unmarked) [Compound 143] |  |  | > 4000 mg/kg | 2000 nM | 79% |  |  |  | 62% | 
33 | CCOc1ccc(S(=O)(=O)OCC(=O)CCCC(C)C)cc1 [Compound 145] | 61% | 62% | > 3000 mg/kg | 3300 nM | 87% |  |  |  |  | 
34 | Cc1cc(C)c(S(=O)(=O)OCC(=O)CC(C)C)c(C)c1 [Compound 149] | 81% | 67% | > 3000 mg/kg | 1000 nM | 7% |  |  |  |  | 
